The values below come from publication PMC9933483, “Tail-Approach-Based Design and Synthesis of Coumarin-Monoterpenes as Carbonic Anhydrase Inhibitors and Anticancer Agents” (ACS Omega, 2023).

Test [1] relates to HT-29 cell line. In words: Cell cytotoxicity, MTT assay. The test is classed as cell-based, human. The conditions noted are these: Homo sapiens, HT-29; MTT, 24 h.
In test [2] the target is hCA IX (Homo sapiens, UniProt Q16790). In words: biochemical.
The subject of test [3] is PC-3 cell line. In words: Cell cytotoxicity, MTT assay. It counts as cell-based. Conditions: Homo sapiens, 24 h.
The subject of test [4] is HEK293T cell line. In words: Cell cytotoxicity, MTT assay. It counts as cell-based. Conditions: Homo sapiens, HEK-293T, 24 h, healthy cell line.
Test [5] deals with MCF-7 cell line. In words: Cell cytotoxicity, MTT assay. The test is classed as cell-based, human. Conditions: Homo sapiens, MCF7, 24 h.

Where only a bound is given, the exact number is not on record here.

For the compound `Cc1ccc(C(C)C)c(OCCCCCCCCCOc2ccc3ccc(=O)oc3c2)c1` [Compound 49, 7-((9-(2-Isopropyl-5-methylphenoxy)nonyl)oxy)-2H-chromen-2-one], the IC50 in test [1] is over 200 µM. Besides, the affinity in test [2] corresponds to a Ki of 0.123 µM.
On the same counts, the results for `CC1CCC(C(C)C)C(OCc2cn(CCCCCCCCCOc3ccc4ccc(=O)oc4c3)nn2)C1` (centres unmarked) [Compound 41, 7-((9-(4-(((2-Isopropyl-5-methylcyclohexyl)oxy)methyl)-1H-1,2,3-triazol-1-yl)nonyl)oxy)-2H-chromen-2-one] are 44.7 ± 15.1 µM and 0.204 µM.
Consider `COc1cccc2c1C(=O)c1c(O)c3c(c(O)c1C2=O)C[C@@](O)(C(=O)CO)C[C@@H]3O[C@H]1C[C@H](N)[C@H](O)[C@H](C)O1` [Dox, doxorubicin, reference compound], for which the concentration for half-maximal inhibition (IC50) in test [3] was found to be 4.48 ± 1.08 µM; in test [4], 2.03 ± 0.12 µM; in test [1], 7.41 ± 1.9 µM; in test [5], 0.64 ± 0.11 µM.
For `CC1CCC(C(C)C)C(OCCCCCCOc2ccc3ccc(=O)oc3c2)C1` (centres unmarked) [Compound 71, 7-((6-((2-Isopropyl-5-methylcyclohexyl)oxy)hexyl)oxy)-2H-chromen-2-one], the IC50 in test [3] amounted to 36 ± 9.49 µM; in test [4], 56.6 ± 10.5 µM; in test [1], 18.6 ± 3.39 µM; in test [5], 30.7 ± 7.04 µM.
In test [1], `Cc1ccc(C(C)C)cc1OCc1cn(CCCCOc2ccc3ccc(=O)oc3c2)nn1` [Compound 22, 7-(4-(4-((5-Isopropyl-2-methylphenoxy)methyl)-1H-1,2,3-triazol-1-yl)butoxy)-2H-chromen-2-one] yielded an IC50 of 37.4 ± 12.1 µM.
With `Cc1ccc(C(C)C)c(OCCCCCCCOc2ccc3ccc(=O)oc3c2)c1` [Compound 48, 7-((7-(2-Isopropyl-5-methylphenoxy)heptyl)oxy)-2H-chromen-2-one], the IC50 in test [1] is over 200 µM. The same compound came in with an inhibitory constant (Ki) in test [2] of 0.0368 µM.
`Cc1ccc(C(C)C)c(OCCCCCCCCCCCCOc2ccc3ccc(=O)oc3c2)c1` [Compound 51, 7-((12-(2-Isopropyl-5-methylphenoxy)dodecyl)oxy)-2H-chromen-2-one]: the half-inhibitory concentration (IC50) was 62.8 ± 23.7 µM in test [3], 50.1 ± 15.7 µM in test [4], over 200 µM in test [1] and 19.6 ± 3.14 µM in test [5]. Affinity in test [2] was put at a Ki of 0.0383 µM.
Take `Cc1ccc(C(C)C)c(OCc2cn(CCCCCCOc3ccc4ccc(=O)oc4c3)nn2)c1` [Compound 15, 7-((6-(4-((2-Isopropyl-5-methylphenoxy)methyl)-1H-1,2,3-triazol-1-yl)hexyl)oxy)-2H-chromen-2-one]: the IC50 in test [3] amounted to 48.4 ± 14.4 µM; in test [4] it was 59.7 ± 12.3 µM; in test [1] it was 30.1 ± 10.2 µM; in test [5] it was 143 ± 58.5 µM.
In turn, `CC1CCC(C(C)C)C(OCc2cn(CCCCCCOc3ccc4ccc(=O)oc4c3)nn2)C1` (centres unmarked) [Compound 39, 7-((6-(4-(((2-Isopropyl-5-methylcyclohexyl)oxy)methyl)-1H-1,2,3-triazol-1-yl)hexyl)oxy)-2H-chromen-2-one] returned an IC50 in test [1] of 65.6 ± 24.2 µM.
`CC1CCC(C(C)C)C(OCc2cn(CCCCCCCOc3ccc4ccc(=O)oc4c3)nn2)C1` (centres unmarked) [Compound 40, 7-((7-(4-(((2-Isopropyl-5-methylcyclohexyl)oxy)methyl)-1H-1,2,3-triazol-1-yl)heptyl)oxy)-2H-chromen-2-one] displayed a half-maximal inhibitory concentration (IC50) in test [1] of 54.8 ± 19.1 µM.
With `Cc1ccc(C(C)C)cc1OCCCCCCCCCOc1ccc2ccc(=O)oc2c1` [Compound 57, 7-((9-(5-Isopropyl-2-methylphenoxy)nonyl)oxy)-2H-chromen-2-one], the IC50 in test [1] is over 200 µM.
Regarding `C=CCc1ccc(OCc2cn(CCCCCCOc3ccc4ccc(=O)oc4c3)nn2)c(OC)c1` [Compound 31, 7-((6-(4-((4-Allyl-2-methoxyphenoxy)methyl)-1H-1,2,3-triazol-1-yl)hexyl)oxy)-2H-chromen-2-one], the IC50 in test [3] was over 200 µM; in test [4] it was 15.2 ± 1.06 µM; in test [1], 45.2 ± 13.1 µM; in test [5], 16.8 ± 9.71 µM.
For `Cc1ccc(C(C)C)cc1OCc1cn(CCOc2ccc3ccc(=O)oc3c2)nn1` [Compound 20, 7-(2-(4-((5-Isopropyl-2-methylphenoxy)methyl)-1H-1,2,3-triazol-1-yl)ethoxy)-2H-chromen-2-one], the IC50 in test [1] came to 25.9 ± 7.94 µM.
As for `CC1CCC(C(C)C)C(OCc2cn(CCCCCCCCCCOc3ccc4ccc(=O)oc4c3)nn2)C1` (centres unmarked) [Compound 42, 7-((10-(4-(((2-Isopropyl-5-methylcyclohexyl)oxy)methyl)-1H-1,2,3-triazol-1-yl)decyl)oxy)-2H-chromen-2-one], the IC50 was 39.7 ± 17 µM in test [3], 83.2 ± 28.1 µM in test [4], 32.9 ± 8.54 µM in test [1] and over 200 µM in test [5]. In test [2], the affinity, expressed as Ki, was 0.0019 µM.
As for `Cc1ccc(C(C)C)c(OCCCOc2ccc3ccc(=O)oc3c2)c1` [Compound 45, 7-(3-(2-Isopropyl-5-methylphenoxy)propoxy)-2H-chromen-2-one], the IC50 in test [3] is over 80 µM; in test [4], 43.3 ± 5.43 µM; in test [1] it was over 200 µM; in test [5], over 200 µM. This compound displayed a Ki in test [2] of 0.192 µM.
On to `C=CCc1ccc(OCCCCCCCCCCCCOc2ccc3ccc(=O)oc3c2)c(OC)c1` [Compound 67, 7-((12-(4-Allyl-2-methoxyphenoxy)dodecyl)oxy)-2H-chromen-2-one], for which the IC50 in test [1] was over 80 µM.
As to `C=CCc1ccc(OCCCCOc2ccc3ccc(=O)oc3c2)c(OC)c1` [Compound 62, 7-(4-(4-Allyl-2-methoxyphenoxy)butoxy)-2H-chromen-2-one], the IC50 in test [3] was 45.5 ± 26.5 µM; in test [4] it was 64.7 ± 20.1 µM; in test [1], over 80 µM; in test [5], 11.3 ± 3.61 µM. In test [2], this compound returned a Ki of 0.0313 µM.
Take `Cc1ccc(C(C)C)cc1OCCCCCCCOc1ccc2ccc(=O)oc2c1` [Compound 56, 7-((7-(5-Isopropyl-2-methylphenoxy)heptyl)oxy)-2H-chromen-2-one]: the half-inhibitory concentration (IC50) in test [3] is 24.4 ± 4.12 µM; in test [4], over 80 µM; in test [1], over 80 µM; in test [5], 8.26 ± 1.28 µM.
As to `Cc1ccc(C(C)C)c(OCc2cn(CCOc3ccc4ccc(=O)oc4c3)nn2)c1` [Compound 12, 7-(2-(4-((2-Isopropyl-5-methylphenoxy)methyl)-1H-1,2,3-triazol-1-yl)ethoxy)-2H-chromen-2-one], the 50% inhibitory concentration (IC50) stood at 50.2 ± 23.7 µM in test [3], 107 ± 19.5 µM in test [4], 48.5 ± 9.01 µM in test [1] and 45.7 ± 14.5 µM in test [5].
Take `Cc1ccc(C(C)C)cc1OCCCOc1ccc2ccc(=O)oc2c1` [Compound 53, 7-(3-(5-Isopropyl-2-methylphenoxy)propoxy)-2H-chromen-2-one]: the IC50 in test [3] was over 200 µM; in test [4] it was over 80 µM; in test [1], over 80 µM; in test [5], 30.8 ± 9.23 µM. The same compound returned a Ki in test [2] of 0.303 µM.
In the case of `Cc1ccc(C(C)C)cc1OCc1cn(CCCOc2ccc3ccc(=O)oc3c2)nn1` [Compound 21, 7-(3-(4-((5-Isopropyl-2-methylphenoxy)methyl)-1H-1,2,3-triazol-1-yl)propoxy)-2H-chromen-2-one], in test [1], the IC50 turned out to be 39.4 ± 15.8 µM.
Same read-out and setting: in the case of `CC1CCC(C(C)C)C(OCCOc2ccc3ccc(=O)oc3c2)C1` (centres unmarked) [Compound 68, 7-(2-((2-Isopropyl-5-methylcyclohexyl)oxy)ethoxy)-2H-chromen-2-one] it was 40.7 ± 7.5 µM.
On the same count and under the same terms, the same measure for `Cc1ccc(C(C)C)c(OCCCCCCCCCCOc2ccc3ccc(=O)oc3c2)c1` [Compound 50, 7-((10-(2-Isopropyl-5-methylphenoxy)decyl)oxy)-2H-chromen-2-one]: over 200 µM.
As for `Cc1ccc(C(C)C)c(OCCCCOc2ccc3ccc(=O)oc3c2)c1` [Compound 46, 7-(4-(2-Isopropyl-5-methylphenoxy)butoxy)-2H-chromen-2-one], the IC50 is over 80 µM in test [3], over 80 µM in test [4], over 80 µM in test [1] and over 200 µM in test [5]. Affinity in test [2] was put at a Ki of 0.0824 µM.
Regarding `Cc1ccc(C(C)C)c(OCc2cn(CCCCCCCCCOc3ccc4ccc(=O)oc4c3)nn2)c1` [Compound 17, 7-((9-(4-((2-Isopropyl-5-methylphenoxy)methyl)-1H-1,2,3-triazol-1-yl)nonyl)oxy)-2H-chromen-2-one], the IC50 in test [3] is 12.5 ± 4.4 µM; in test [4], over 200 µM; in test [1], 28.5 ± 8.9 µM; in test [5], over 200 µM. The compound also showed a Ki in test [2] of 0.213 µM.
With `Cc1ccc(C(C)C)c(OCc2cn(CCCCCCCOc3ccc4ccc(=O)oc4c3)nn2)c1` [Compound 16, 7-((7-(4-((2-Isopropyl-5-methylphenoxy)methyl)-1H-1,2,3-triazol-1-yl)heptyl)oxy)-2H-chromen-2-one], the IC50 in test [3] was found to be 167 ± 30.1 µM; in test [4], 142 ± 49.6 µM; in test [1], 21.6 ± 8.31 µM; in test [5], 73.1 ± 55.4 µM.
In test [1], `Cc1ccc(C(C)C)c(OCc2cn(CCCOc3ccc4ccc(=O)oc4c3)nn2)c1` [Compound 13, 7-(3-(4-((2-Isopropyl-5-methylphenoxy)methyl)-1H-1,2,3-triazol-1-yl)propoxy)-2H-chromen-2-one] returned an IC50 of 48.5 ± 8.73 µM.
Turning to `Cc1ccc(C(C)C)cc1OCCCCCCOc1ccc2ccc(=O)oc2c1` [Compound 55, 7-((6-(5-Isopropyl-2-methylphenoxy)hexyl)oxy)-2H-chromen-2-one], the IC50 in test [3] is 48.3 ± 14.1 µM; in test [4], over 80 µM; in test [1], 63.29 ± 0.57 µM; in test [5], 16.4 ± 2.91 µM. The same compound showed a Ki in test [2] of 0.0362 µM.
On the same counts, the results for `CC1CCC(C(C)C)C(OCCCOc2ccc3ccc(=O)oc3c2)C1` (centres unmarked) [Compound 69, 7-(3-((2-Isopropyl-5-methylcyclohexyl)oxy)propoxy)-2H-chromen-2-one] are 41.4 ± 14.9 µM, 50 ± 8.43 µM, 12.1 ± 1.94 µM, 5.86 ± 1.22 µM and 0.0341 µM.
